Measured values taken from ChEMBL document CHEMBL1147331, “Cytotoxic and antimalarial bisbenzylisoquinoline alkaloids from Stephania erecta” (J Nat Prod, 1993).
In brackets after ≈: the same amount, converted by molar mass.

What was measured:
[1] = Selectivity index, ratio of ED50 for human BCA1 cells to ED50 for chloroquine-sensitive Plasmodium falciparum D6; assay type: toxicity, cell-based; details: read-out: Ratio ED50
[2] = Cytotoxicity against human Col1 cells after 3 days by sulforhodamine B assay; assay type: cell-based; details: read-out: ED50
[3] = Cytotoxicity against human A431 cells after 3 days by sulforhodamine B assay; assay type: cell-based, A-431; details: read-out: ED50
[4] = Selectivity index, ratio of ED50 for human BCA1 cells to ED50 for chloroquine-resistant Plasmodium falciparum W2; assay type: toxicity, cell-based; details: read-out: Ratio ED50
[5] = Selectivity index, ratio of ED50 for human LNCaP cells to ED50 for chloroquine-resistant Plasmodium falciparum W2; assay type: toxicity, cell-based; details: read-out: Ratio ED50
[6] = Selectivity index, ratio of ED50 for human HT1080 cells to ED50 for chloroquine-sensitive Plasmodium falciparum D6; assay type: toxicity, cell-based, HT-1080; details: read-out: Ratio ED50
[7] = in vitro; details: mouse, P388 cells
Description: Selectivity index, ratio of ED50 for mice (Mus musculus) P388 cells to ED50 for chloroquine-sensitive Plasmodium falciparum D6

[8] = Selectivity index, ratio of ED50 for human ZR-75-1 cells to ED50 for chloroquine-resistant Plasmodium falciparum W2; assay type: toxicity, cell-based; details: read-out: Ratio ED50
[9] = Selectivity index, ratio of ED50 for human MEL2 cells to ED50 for chloroquine-sensitive Plasmodium falciparum D6; assay type: toxicity, cell-based; details: read-out: Ratio ED50
[10] = Cytotoxicity against mouse P388 cells after 2 days by sulforhodamine B assay; assay type: cell-based; details: read-out: ED50
[11] = Cytotoxicity against human SK-MEL-2 cells after 3 days by sulforhodamine B assay; assay type: cell-based; details: read-out: ED50
[12] = tested on: Plasmodium falciparum; assay: Antimalarial activity after 24 hrs against chloroquine-resistant Plasmodium falciparum W2 infected type A+ human erythrocytes by [3H]hypoxanthine uptake; assay type: functional; details: read-out: ED50 (the source's name)
[13] = Selectivity index, ratio of ED50 for human KB-V1 cells to ED50 for chloroquine-sensitive Plasmodium falciparum D6; assay type: toxicity, cell-based; details: read-out: Ratio ED50
[14] = Cytotoxicity against human BCA1 cells after 3 days by sulforhodamine B assay; assay type: cell-based; details: read-out: ED50
[15] = Selectivity index, ratio of ED50 for human LUC1 cells to ED50 for chloroquine-sensitive Plasmodium falciparum D6; assay type: toxicity, cell-based; details: read-out: Ratio ED50
[16] = Cytotoxicity against human LNCAP cells after 3 days by sulforhodamine B assay; assay type: cell-based; details: read-out: ED50
[17] = Cytotoxicity against human KB cells after 3 days by sulforhodamine B assay; assay type: cell-based; details: read-out: ED50
[18] = in vitro; details: human, A431 cells
Description: Selectivity index, ratio of ED50 for human A431 cells to ED50 for chloroquine-sensitive Plasmodium falciparum D6

[19] = Selectivity index, ratio of ED50 for human COL1 cells to ED50 for chloroquine-resistant Plasmodium falciparum W2; assay type: toxicity, cell-based; details: read-out: Ratio ED50
[20] = in vitro; details: mouse, P388 cells; remark: listed apart in the source
Description: Selectivity index, ratio of ED50 for mice (Mus musculus) P388 cells to ED50 for chloroquine-resistant Plasmodium falciparum W2

[21] = Cytotoxicity against human KBV1 cells after 3 days by sulforhodamine B assay; assay type: cell-based, KB-V1; details: read-out: ED50
[22] = Selectivity index, ratio of ED50 for human KB-V1 cells to ED50 for chloroquine-resistant Plasmodium falciparum W2; assay type: toxicity, cell-based; details: read-out: Ratio ED50
[23] = Cytotoxicity against human HT1080 cells after 3 days by sulforhodamine B assay; assay type: cell-based, HT-1080; details: read-out: ED50
[24] = Selectivity index, ratio of ED50 for human MEL2 cells to ED50 for chloroquine-resistant Plasmodium falciparum W2; assay type: toxicity, cell-based; details: read-out: Ratio ED50
[25] = Selectivity index, ratio of ED50 for human LUC1 cells to ED50 for chloroquine-resistant Plasmodium falciparum W2; assay type: toxicity, cell-based; details: read-out: Ratio ED50
[26] = Selectivity index, ratio of ED50 for human HT1080 cells to ED50 for chloroquine-resistant Plasmodium falciparum W2; assay type: toxicity, cell-based, HT-1080; details: read-out: Ratio ED50
[27] = Selectivity index, ratio of ED50 for human KB cells to ED50 for chloroquine-sensitive Plasmodium falciparum D6; assay type: toxicity, cell-based; details: read-out: Ratio ED50
[28] = Selectivity index, ratio of ED50 for human LNCaP cells to ED50 for chloroquine-sensitive Plasmodium falciparum D6; assay type: toxicity, cell-based; details: read-out: Ratio ED50
[29] = in vitro; details: human, A431 cells; remark: listed apart in the source
Description: Selectivity index, ratio of ED50 for human A431 cells to ED50 for chloroquine-resistant Plasmodium falciparum W2

[30] = Cytotoxicity against human ZR-75-1 cells after 3 days by sulforhodamine B assay; assay type: cell-based; details: read-out: ED50
[31] = Selectivity index, ratio of ED50 for human KB cells to ED50 for chloroquine-resistant Plasmodium falciparum W2; assay type: toxicity, cell-based; details: read-out: Ratio ED50
[32] = Selectivity index, ratio of ED50 for human ZR-75-1 cells to ED50 for chloroquine-sensitive Plasmodium falciparum D6; assay type: toxicity, cell-based; details: read-out: Ratio ED50
[33] = tested on: Plasmodium falciparum; assay: Antimalarial activity after 24 hrs against chloroquine-sensitive Plasmodium falciparum D6 infected type A+ human erythrocytes by [3H]hypoxanthine uptake; assay type: functional; details: read-out: ED50 (the source's name)
[34] = Cytotoxicity against human LUC1 cells after 3 days by sulforhodamine B assay; assay type: cell-based; details: read-out: ED50
[35] = Selectivity index, ratio of ED50 for human COL1 cells to ED50 for chloroquine-sensitive Plasmodium falciparum D6; assay type: toxicity, cell-based; details: read-out: Ratio ED50

SMILES	selectivity ratio [1]	CC50 at 72 h [2] [µg/mL]	CC50 at 72 h [3] [µg/mL]	selectivity ratio [4]	selectivity ratio [5]	selectivity ratio [6]	selectivity ratio [8]	CC50 at 48 h [10] [µg/mL]	CC50 at 72 h [11] [µg/mL]	EC50 [12] [µg/mL]	CC50 at 72 h [14] [µg/mL]	CC50 at 72 h [16] [µg/mL]	CC50 at 72 h [17] [µg/mL]	selectivity ratio [20]	CC50 at 72 h [21] [µg/mL]	CC50 at 72 h [23] [µg/mL]	CC50 at 72 h [30] [µg/mL]	selectivity ratio [32]	EC50 [33] [µg/mL]	CC50 at 72 h [34] [µg/mL]	further results
COc1ccc2cc1Oc1ccc(cc1)C[C@H]1c3c(cc(OC)c4c3Oc3cc5c(cc3O4)CCN=C5C2)CCN1C	15	5 (≈ 8.92 µM)	6 (≈ 10.7 µM)	18	8	7	3	3.1 (≈ 5.53 µM)	9.9 (≈ 17.7 µM)	0.256 (≈ 0.457 µM)	4.6 (≈ 8.2 µM)	2 (≈ 3.57 µM)	2.8 (≈ 4.99 µM)	12	6.8 (≈ 12.1 µM)	2.1 (≈ 3.75 µM)	0.7 (≈ 1.25 µM)	2	0.307 (≈ 0.547 µM)	1.7 (≈ 3.03 µM)	selectivity ratio [7]: 10; selectivity ratio [9]: 32; selectivity ratio [13]: 22; selectivity ratio [15]: 6; selectivity ratio [18]: 20; selectivity ratio [19]: 20; selectivity ratio [22]: 27; selectivity ratio [24]: 39; selectivity ratio [25]: 7; selectivity ratio [26]: 8; selectivity ratio [27]: 9; selectivity ratio [28]: 7; selectivity ratio [29]: 23; selectivity ratio [31]: 11; selectivity ratio [35]: 16
COc1ccc2cc1Oc1ccc(cc1)C[C@H]1c3c(cc(O)c(OC)c3Oc3cc4c(cc3OC)CCN(C)[C@@H]4C2)CCN1C		7.5 (≈ 12.3 µM)	8.9 (≈ 14.6 µM)				43	3.7 (≈ 6.08 µM)	12.8 (≈ 21 µM)	0.31 (≈ 0.509 µM)	4.7 (≈ 7.72 µM)	8.3 (≈ 13.6 µM)	6.4 (≈ 10.5 µM)	76	7.4 (≈ 12.2 µM)	7.2 (≈ 11.8 µM)	2.1 (≈ 3.45 µM)	4	0.13 (≈ 0.214 µM)	8.6 (≈ 14.1 µM)	
CCN(CC)CCCC(C)Nc1ccnc2cc(Cl)ccc12 (stereo not given) [CHLOROQUINE]		10.1 (≈ 31.6 µM)	> 20					> 5	> 20	0.0317 (≈ 0.0991 µM)	> 20	14.3 (≈ 44.7 µM)	17.4 (≈ 54.4 µM)		7.8 (≈ 24.4 µM)	6.5 (≈ 20.3 µM)	15.8 (≈ 49.4 µM)		0.0025 (≈ 0.00782 µM)	> 20	
OC(c1cc(C(F)(F)F)nc2c(C(F)(F)F)cccc12)C1CCCCN1 (stereo not given) [MEFLOQUINE]	588	1 (≈ 2.64 µM)	3 (≈ 7.93 µM)	4420	1920	256	2250	0.2 (≈ 0.529 µM)	8.9 (≈ 23.5 µM)	0.0012 (≈ 0.00317 µM)	5.3 (≈ 14 µM)	2.3 (≈ 6.08 µM)	3.5 (≈ 9.25 µM)	166	1.1 (≈ 2.91 µM)	2.3 (≈ 6.08 µM)	1.2 (≈ 3.17 µM)	300	0.009 (≈ 0.0238 µM)	7.7 (≈ 20.4 µM)	selectivity ratio [7]: 22; selectivity ratio [9]: 989; selectivity ratio [13]: 122; selectivity ratio [18]: 333; selectivity ratio [19]: 833; selectivity ratio [22]: 917; selectivity ratio [24]: 7420; selectivity ratio [26]: 1920; selectivity ratio [27]: 389; selectivity ratio [28]: 256; selectivity ratio [29]: 2500; selectivity ratio [35]: 111
COc1ccc2cc1Oc1ccc(cc1)C[C@H]1c3cc(c(OC)cc3CCN1C)Oc1c(O)c(OC)cc3c1[C@@H](C2)NCC3	60	4.7 (≈ 7.9 µM)	4.2 (≈ 7.06 µM)	33	53	32	13	0.1 (≈ 0.168 µM)	15.4 (≈ 25.9 µM)	0.125 (≈ 0.21 µM)	4.1 (≈ 6.89 µM)	6.6 (≈ 11.1 µM)	6.3 (≈ 10.6 µM)	1	8.1 (≈ 13.6 µM)	2.2 (≈ 3.7 µM)	1.2 (≈ 2.02 µM)	23	0.0686 (≈ 0.115 µM)	8.4 (≈ 14.1 µM)	selectivity ratio [7]: 2; selectivity ratio [9]: 225; selectivity ratio [13]: 118; selectivity ratio [15]: 123; selectivity ratio [18]: 61; selectivity ratio [19]: 38; selectivity ratio [22]: 65; selectivity ratio [25]: 67; selectivity ratio [26]: 18; selectivity ratio [27]: 92; selectivity ratio [28]: 97; selectivity ratio [29]: 34; selectivity ratio [31]: 50; selectivity ratio [35]: 69
